# In US6902744B1, “Exendin agonist formulations and methods of administration thereof” (Amylin Pharmaceuticals, Inc., priority 1999, dated 2005):
# Tested on: Sprague-Dawley rats
# Experiment: Insulinotropic action during an intravenous glucose challenge in rats
# Assay type: in vivo
# Conditions: peptide 30 pmol/kg/min i.v.; n.s. versus saline
substance,measurement,value
GLP-1[7-36]NH2,increase of 60-min insulin AUC versus saline-treated rats,20%
